Values after ≈ are worked out from the molar mass of the structure shown. Active and inactive are the calls of the source. No cut-off for these calls is given here.
Tests used:
[1] = biological target: T1, Glucose-dependent insulinotropic receptor (Mus musculus) (UniProt Q7TQP3); experiment: (§1) Agonist activity at mouse GPR119 expressed in HEK293 cells assessed as cAMP accumulation after 30 mins by fluorescence analysis; assay type: functional, cell-based
T1 sequence (whole entry): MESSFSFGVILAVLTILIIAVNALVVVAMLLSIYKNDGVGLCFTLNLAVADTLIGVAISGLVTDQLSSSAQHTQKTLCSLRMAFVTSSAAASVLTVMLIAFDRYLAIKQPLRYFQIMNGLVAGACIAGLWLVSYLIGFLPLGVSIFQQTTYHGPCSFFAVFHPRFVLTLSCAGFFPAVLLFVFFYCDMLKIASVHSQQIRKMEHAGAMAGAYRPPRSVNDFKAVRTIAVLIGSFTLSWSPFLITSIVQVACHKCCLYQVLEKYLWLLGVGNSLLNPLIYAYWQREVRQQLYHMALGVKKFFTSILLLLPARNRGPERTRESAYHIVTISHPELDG

[2] = biological target: T2, Glucose-dependent insulinotropic receptor (Homo sapiens) (UniProt Q8TDV5); experiment: (§2) Agonist activity at human GPR119 expressed in HEK293 cells assessed as cAMP accumulation after 30 mins by fluorescence analysis; assay type: functional, cell-based
T2 sequence (whole entry): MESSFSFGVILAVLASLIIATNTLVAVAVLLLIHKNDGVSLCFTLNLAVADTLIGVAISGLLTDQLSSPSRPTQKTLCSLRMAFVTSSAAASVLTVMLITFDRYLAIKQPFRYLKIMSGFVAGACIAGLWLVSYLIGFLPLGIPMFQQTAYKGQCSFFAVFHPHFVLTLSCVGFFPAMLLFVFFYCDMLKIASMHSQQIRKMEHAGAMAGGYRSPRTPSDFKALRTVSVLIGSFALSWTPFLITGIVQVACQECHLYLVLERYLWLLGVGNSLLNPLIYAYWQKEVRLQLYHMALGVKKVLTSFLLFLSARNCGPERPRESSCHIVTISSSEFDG

Mus musculus [3] = experiment: Decrease in blood glucose level in C57B1/6NCrl mouse at 3 mg/kg, po administered 30 mins prior to oral glucose challenge by glucose tolerance test relative to control; assay type: functional
[4] = AUC (0 to 6 hrs) in Sprague-Dawley rat plasma at 10 mg/kg, po; assay type: ADME, organism-based; parameters: time < 6 hr, dose 10 mg/kg, route oral
[5] = biological target: T3, Glucose-dependent insulinotropic receptor (Mus musculus, UniProt Q7TQP3); experiment: as §1; assay type: functional, cell-based
T3 sequence (Q7TQP3 whole entry): T1 sequence (whole entry)

[6] = biological target: T4, Glucose-dependent insulinotropic receptor (Homo sapiens, UniProt Q8TDV5); experiment: as §2; assay type: functional, cell-based
T4 sequence (Q8TDV5 whole entry): T2 sequence (whole entry)

Mus musculus [7] = experiment: Decrease in blood glucose level in C57B1/6NCrl mouse at 3 mg/kg, po administered 30 mins prior to oral glucose challenge by glucose tolerance test; assay type: functional, organism-based
[8] = Solubility of compound at pH 7.4; assay type: physicochemical; conditions: buffer
Plasma [9] = experiment: Plasma concentration in C57B1/6NCrl mouse at 1 mg/kg, po; assay type: ADME, organism-based; conditions: in vivo
Mus musculus [10] = experiment: Decrease in blood glucose level in C57B1/6NCrl mouse at 0.1 mg/kg, po administered 30 mins prior to oral glucose challenge by glucose tolerance test relative to control; assay type: functional
Mus musculus [11] = experiment: Decrease in blood glucose level in C57B1/6NCrl mouse drug administered 30 mins prior to oral glucose challenge by glucose tolerance test; assay type: functional, organism-based
Plasma [12] = experiment: Plasma concentration in C57B1/6NCrl mouse at 0.3 mg/kg, po; assay type: ADME, organism-based; conditions: in vivo
Plasma [13] = experiment: Plasma concentration in C57B1/6NCrl mouse at 3 mg/kg, po; assay type: ADME, organism-based; conditions: in vivo
Plasma [14] = experiment: Plasma concentration in C57B1/6NCrl mouse at 0.1 mg/kg, po; assay type: ADME, organism-based; conditions: in vivo
Plasma [15] = experiment: Fraction unbound in C57B1/6NCrl mouse plasma at 3 mg/kg, po after 1 hr; assay type: ADME, organism-based; conditions: in vivo

%max [1] [%]	%max [2] [%]	EC50 [5] [nM]	EC50 [6] [nM]	Compound	further results
34	54	–	–	Cc1c(Nc2ccc(C#N)cc2Cl)ncnc1OC1CC2COCC(C1)N2C(=O)OC(C)(C)C (stereo in doubt; 14) [listing 1 of 2 here]	–
53	56	–	–	Cc1c(Nc2ccc(C#N)cc2Cl)ncnc1OC1C2COCC1CN(S(=O)(=O)C1CC1)C2 (stereo in doubt; 17) [listing 1 of 2 here]	–
105	88	254	25	CC1(OC(=O)N2CC3COCC(C2)C3Oc2cc(Nc3ccc(C#N)cc3Cl)ncn2)CC1 (configuration not stated)	inhibition in vivo at 3 mg/kg (Mus musculus [3]): 78%; AUC(0-t) at 6 h [4]: 1.19 µM·h
78	49	190	44	Cc1c(Nc2ccc(S(C)(=O)=O)cc2Cl)ncnc1OC1CC2COCC(C1)N2C(=O)OC(C)(C)C (configuration not stated)	Activity (Mus musculus [7]): Active
99	88	43	7	COc1c(Nc2ccc(C#N)cc2Cl)ncnc1OC1C2COCC1CN(C(=O)OC1(C)CC1)C2 (configuration not stated)	inhibition in vivo at 3 mg/kg (Mus musculus [3]): 78%; AUC(0-t) at 6 h [4]: 8.23 µM·h; solubility [8]: 30 µM (≈ 15 µg/mL); concentration (Plasma [9]): 220 nM; inhibition in vivo at 0.1 mg/kg (Mus musculus [10]): 40%; inhibition (Mus musculus [11]): Dose-dependent effect; concentration (Plasma [12]): 90 nM; concentration (Plasma [13]): 350 nM; concentration (Plasma [14]): 20 nM
79	87	511	70	Cc1c(Nc2ccc(S(C)(=O)=O)cc2F)ncnc1OC1CC2COCC(C1)N2C(=O)OC1(C)CC1 (configuration not stated)	inhibition in vivo at 3 mg/kg (Mus musculus [3]): 84%; AUC(0-t) at 6 h [4]: 2.4 µM·h; solubility [8]: 3.4 µM (≈ 1.77 µg/mL); Cp(f) (Plasma [15]): 100 nM
–	–	–	1210	Cc1c(Nc2ccc(C#N)cc2Cl)ncnc1OC1C2COCC1CN(S(=O)(=O)C1CC1)C2 (stereo in doubt; 18) [listing 1 of 2 here]	–
–	–	–	65	Cc1ncccc1Nc1ncnc(OC2C3COCC2CN(C(=O)OC(C)C)C3)c1C (stereo in doubt; 21) [listing 1 of 2 here]	–
–	–	100	17	Cc1c(Nc2ccc(C#N)cc2Cl)ncnc1OC1CC2COCC(C1)N2C(=O)OC(C)(C)C (stereo in doubt; 15) [listing 1 of 2 here]	–
110	65	–	–	Cc1c(Nc2ccc(C#N)cc2Cl)ncnc1OC1C2COCC1CN(C(=O)OC(C)(C)C)C2 (stereo in doubt; 19) [listing 1 of 2 here]	–
69	83	–	–	Cc1c(Nc2ccc(C#N)cc2Cl)ncnc1OC1C2COCC1CN(C(=O)OC(C)(C)C)C2 (stereo in doubt; 20) [listing 1 of 2 here]	–
–	–	280	114	Cc1c(Nc2ccc(C#N)cc2Cl)ncnc1OC1CC2COCC(C1)N2C(=O)OC(C)(C)C (stereo in doubt; 14) [listing 2 of 2 here]	–
102	74	33	4	Cc1c(Nc2ccc(C#N)cc2Cl)ncnc1OC1C2COCC1CN(C(=O)OC1(C)CC1)C2 (configuration not stated)	inhibition in vivo at 3 mg/kg (Mus musculus [3]): 79%; AUC(0-t) at 6 h [4]: 4.98 µM·h; solubility [8]: 6 µM (≈ 2.9 µg/mL); Cp(f) (Plasma [15]): 3 nM
–	78	–	–	Cc1ncccc1Nc1ncnc(OC2C3COCC2CN(C(=O)OC(C)C)C3)c1C (stereo in doubt; 21) [listing 2 of 2 here]	–
–	–	28	7	Cc1c(Nc2ccc(C#N)cc2Cl)ncnc1OC1C2COCC1CN(C(=O)OC(C)(C)C)C2 (stereo in doubt; 19) [listing 2 of 2 here]	–
–	–	844	51	Cc1c(Nc2ccc(C#N)cc2Cl)ncnc1OC1C2COCC1CN(S(=O)(=O)C1CC1)C2 (stereo in doubt; 17) [listing 2 of 2 here]	–
–	–	–	> 10000	Cc1ncccc1Nc1ncnc(OC2C3COCC2CN(C(=O)OC(C)C)C3)c1C (stereo in doubt; 22)	–
100	64	1600	268	Cc1c(Nc2ccc(C#N)cc2Cl)ncnc1OC1CC2COCC(C1)N2S(=O)(=O)C1CC1 (configuration not stated)	–
116	99	47	5	COc1c(Nc2ccc(C#N)cc2F)ncnc1OC1C2COCC1CN(C(=O)OC1(C)CC1)C2 (configuration not stated)	inhibition in vivo at 3 mg/kg (Mus musculus [3]): 78%; AUC(0-t) at 6 h [4]: 1.43 µM·h
57	38	–	–	Cc1c(Nc2ccc(C#N)cc2Cl)ncnc1OC1CC2COCC(C1)N2C(=O)OC(C)(C)C (stereo in doubt; 15) [listing 2 of 2 here]	Activity (Mus musculus [7]): inactive
–	52	–	–	Cc1c(Nc2ccc(C#N)cc2Cl)ncnc1OC1C2COCC1CN(S(=O)(=O)C1CC1)C2 (stereo in doubt; 18) [listing 2 of 2 here]	–
–	–	140	20	Cc1c(Nc2ccc(C#N)cc2Cl)ncnc1OC1C2COCC1CN(C(=O)OC(C)(C)C)C2 (stereo in doubt; 20) [listing 2 of 2 here]	–
143	78	128	16	Cc1c(Oc2ccc(C#N)cc2Cl)ncnc1OC1C2COCC1CN(C(=O)OC1(C)CC1)C2 (configuration not stated)	inhibition in vivo at 3 mg/kg (Mus musculus [3]): 75%; AUC(0-t) at 6 h [4]: 1.49 µM·h
